{
  "source": "patent US8492310B2",
  "about": "“Herbicidal compositions containing benzoylpyrazole compounds” (priority 2008, dated 2013)",
  "format_in_all_cases": "in vivo",
  "key": {"[1]": {"test_system": "velvetleaf (Abutilon theophrasti MEDIC.)", "assay": "Foliar treatment pot test, visual growth inhibition rate, velvetleaf (AT)", "details": "Abutilon theophrasti, foliar, read-out: Growth inhibition rate (%) of AT Measured value; for inhibition at 300 g/ha: 3.1-3.4 leaf stage", "in_short": "(§1)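 Seeds were sown in upland soil pots, and plants were sprayed on the foliage at a predetermined leaf stage with herbicidal compositions diluted in water at 300 L/ha. Growth inhibition was rated visually. Expected combination activity was calculated by Colby's formula to assess synergy.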"}, "[2]": {"test_system": "prickly sida (Sida spinosa L.)", "assay": "Foliar treatment pot test, visual growth inhibition rate, prickly sida (SS)", "details": "Sida spinosa, foliar, read-out: Growth inhibition rate (%) of SS Measured value; for inhibition at 63 g/ha / inhibition at 125 g/ha / inhibition at 250 g/ha: 504 h, 21 DAT", "from_the_text": "(§2) When the herbicidal activity in a case where two active ingredients are combined, is larger than the simple sum of the respective herbicidal activities of the two active ingredients (the expected activity), it is called a synergistic effect. The activity expected by the combination of two active ingredients can be calculated as follows (Colby S. R., “Weed”, vol. 15, p. 20-22, 1967). E=α+β−(α×β÷100) where\n(§3) Upland field soil was put into a 1/1,000,000 hectare pot, and seeds of various plants (barnyardgrass (Echinochloa crus-qalli L.), crabgrass (Digitaria sanguinalis L.), giant foxtail (Setaria faberi Herrm.), velvetleaf (Abutilon theophrasti MEDIC.) and prickly sida (Sida spinosa L.)) were sown. When the respective plants reached predetermined leaf stage, herbicidal compositions in predetermined amounts were diluted with water in an amount corresponding to 300 L/ha and applied for foliar treatment by a small sprayer.\n(§4) Further, in accordance with the above Colby's formula, the growth inhibition rate (calculated value) was calculated. In Tables, with respect to the compound Q, Compound Nos. in Table 1 are described, and with respect to other herbicidal compounds, common names are described. Further, in Tables, barnyardgrass is represented by “EC”, crabgrass by “DS”, giant foxtail by “SF”, velvetleaf by “AT”, and prickly sida by “SS”."}, "[3]": {"test_system": "barnyardgrass (Echinochloa crus-qalli L.)", "assay": "Foliar treatment pot test, visual growth inhibition rate, barnyardgrass (EC)", "details": "4.0-5.0 leaf stage, read-out: Growth inhibition rate (%) of EC Measured value; for inhibition at 250 g/ha: 192 h, 8 DAT; for inhibition at 125 g/ha: 504 h, 21 DAT", "from_the_text": "as §2, §3, §4"}, "[4]": {"test_system": "crabgrass (Digitaria sanguinalis L.)", "assay": "Foliar treatment pot test, visual growth inhibition rate, crabgrass (DS)", "details": "Digitaria sanguinalis, foliar, read-out: Growth inhibition rate (%) of DS Measured value; for inhibition at 175 g/ha: 504 h, 21 DAT; for inhibition at 375 g/ha: 528 h, 3.1-4.0 leaf stage, 22 DAT", "in_short": "as §1"}, "[5]": {"details": "336 h, 4.6-5.3 leaf stage, 14 DAT"}, "[6]": {"details": "504 h, 3.0-3.8 leaf stage, 21 DAT"}, "[7]": {"details": "504 h, 4.0-4.5 leaf stage, 21 DAT"}},
  "note": "Like-named read-outs stand apart in the source and are kept apart here.",
  "data": [
    {"smiles": "CCNc1nc(Cl)nc(NC(C)C)n1", "note": "[Atrazine, atrazine]", "values": [
      {"measurement": "inhibition at 500 g/ha", "setting": "[1]; [5]", "value": 45, "unit": "%"},
      {"measurement": "inhibition at 1000 g/ha", "setting": "[1]; [5]", "value": 60, "unit": "%"},
      {"measurement": "inhibition at 2000 g/ha", "setting": "[1]; [5]", "value": 70, "unit": "%"},
      {"measurement": "inhibition at 50 g/ha", "setting": "[1]; 480 h, 3.1-3.5 leaf stage, 20 DAT, 50 g/ha", "value": 30, "unit": "%"},
      {"measurement": "inhibition at 100 g/ha", "setting": "[1]; 480 h, 3.1-3.5 leaf stage, 20 DAT, 100 g/ha", "value": 30, "unit": "%"},
      {"measurement": "inhibition at 200 g/ha", "setting": "[1]; 480 h, 3.1-3.5 leaf stage, 20 DAT, 200 g/ha", "value": 35, "unit": "%"},
      {"measurement": "inhibition at 400 g/ha", "setting": "[1]; 480 h, 3.1-3.5 leaf stage, 20 DAT, 400 g/ha", "value": 40, "unit": "%"},
      {"measurement": "inhibition at 600 g/ha", "setting": "[1]; 480 h, 3.1-3.5 leaf stage, 20 DAT, 600 g/ha", "value": 80, "unit": "%"},
      {"measurement": "inhibition at 800 g/ha", "setting": "[1]; 480 h, 3.1-3.5 leaf stage, 20 DAT, 800 g/ha", "value": 100, "unit": "%"},
      {"measurement": "inhibition at 175 g/ha", "setting": "[1]; [6]", "value": 0, "unit": "%"},
      {"measurement": "inhibition at 375 g/ha", "setting": "[1]; 528 h, 4.0-4.4 leaf stage, 22 DAT, 375 g/ha", "value": 25, "unit": "%"},
      {"measurement": "inhibition at 63 g/ha", "setting": "[2]; 3.0-3.3 leaf stage", "value": 30, "unit": "%"},
      {"measurement": "inhibition at 125 g/ha", "setting": "[2]; 3.0-3.3 leaf stage", "value": 45, "unit": "%"},
      {"measurement": "inhibition at 250 g/ha", "setting": "[2]; 3.0-3.3 leaf stage", "value": 65, "unit": "%"},
      {"measurement": "inhibition at 250 g/ha", "setting": "[3]", "value": 10, "unit": "%"},
      {"measurement": "inhibition at 125 g/ha", "setting": "[3]", "value": 0, "unit": "%"},
      {"measurement": "inhibition at 50 g/ha", "setting": "[4]; 336 h, 4.0-4.5 leaf stage, 14 DAT, 50 g/ha", "value": 20, "unit": "%"},
      {"measurement": "inhibition at 400 g/ha", "setting": "[4]; 336 h, 4.0-4.5 leaf stage, 14 DAT, 400 g/ha", "value": 30, "unit": "%"},
      {"measurement": "inhibition at 800 g/ha", "setting": "[4]; 336 h, 4.0-4.5 leaf stage, 14 DAT, 800 g/ha", "value": 40, "unit": "%"},
      {"measurement": "inhibition at 500 g/ha", "setting": "[4]; 336 h, 5.0-6.0 leaf stage, 14 DAT, 500 g/ha", "value": 0, "unit": "%"},
      {"measurement": "inhibition at 1000 g/ha", "setting": "[4]; 336 h, 5.0-6.0 leaf stage, 14 DAT, 1000 g/ha", "value": 10, "unit": "%"},
      {"measurement": "inhibition at 2000 g/ha", "setting": "[4]; 336 h, 5.0-6.0 leaf stage, 14 DAT, 2000 g/ha", "value": 25, "unit": "%"},
      {"measurement": "inhibition at 175 g/ha", "setting": "[4]; 3.5-4.3 leaf stage", "value": 0, "unit": "%"},
      {"measurement": "inhibition at 375 g/ha", "setting": "[4]", "value": 0, "unit": "%"}
    ]},
    {"smiles": "CCNc1nc(Cl)nc(NC(C)(C)C)n1", "note": "[Terbuthylazine, terbuthylazine]", "values": [
      {"measurement": "inhibition at 300 g/ha", "setting": "[1]; 480 h, 20 DAT", "value": 50, "unit": "%"},
      {"measurement": "inhibition at 175 g/ha", "setting": "[1]; [6]", "value": 0, "unit": "%"},
      {"measurement": "inhibition at 300 g/ha", "setting": "[1]; 504 h, 21 DAT", "value": 50, "unit": "%"},
      {"measurement": "inhibition at 500 g/ha", "setting": "[1]; [7]", "value": 30, "unit": "%"},
      {"measurement": "inhibition at 1000 g/ha", "setting": "[1]; [7]", "value": 45, "unit": "%"},
      {"measurement": "inhibition at 2000 g/ha", "setting": "[1]; [7]", "value": 55, "unit": "%"},
      {"measurement": "inhibition at 175 g/ha", "setting": "[1]; 528 h, 4.0-4.4 leaf stage, 22 DAT", "value": 15, "unit": "%"},
      {"measurement": "inhibition at 100 g/ha", "setting": "[2]; 480 h, 1.5-2.4 leaf stage, 20 DAT, 100 g/ha", "value": 55, "unit": "%"},
      {"measurement": "inhibition at 63 g/ha", "setting": "[2]; 3.0-4.0 leaf stage", "value": 0, "unit": "%"},
      {"measurement": "inhibition at 125 g/ha", "setting": "[2]; 3.0-4.0 leaf stage", "value": 0, "unit": "%"},
      {"measurement": "inhibition at 250 g/ha", "setting": "[2]; 3.0-4.0 leaf stage", "value": 20, "unit": "%"},
      {"measurement": "inhibition at 250 g/ha", "setting": "[3]", "value": 10, "unit": "%"},
      {"measurement": "inhibition at 125 g/ha", "setting": "[3]", "value": 0, "unit": "%"},
      {"measurement": "inhibition at 300 g/ha", "setting": "[4]; 336 h, 3.5-4.3 leaf stage, 14 DAT, 300 g/ha", "value": 25, "unit": "%"},
      {"measurement": "inhibition at 175 g/ha", "setting": "[4]; 3.5-4.3 leaf stage", "value": 0, "unit": "%"},
      {"measurement": "inhibition at 375 g/ha", "setting": "[4]", "value": 0, "unit": "%"}
    ]}
  ]
}
